Patent publication US20190083449A1, “COMBINATION THERAPY WITH AN ANTI-HYALURONAN AGENT AND THERAPEUTIC AGENT” (Halozyme, Inc., priority 2012, published 2019)

Experiments:
[1] = route (IV or PO); cited from earlier work
B16 melanoma model = conditions: oral administration at 600 mg/kg/d; cited from earlier work
cytidine deaminase = target: T1, cytidine deaminase (Homo sapiens, UniProt P32320); conditions: cited from earlier work; for Km: enzyme purified from human liver
T1 construct: for the enzyme purified from human liver; from tissue; host or cells: human liver
T1 sequence (P32320 whole entry): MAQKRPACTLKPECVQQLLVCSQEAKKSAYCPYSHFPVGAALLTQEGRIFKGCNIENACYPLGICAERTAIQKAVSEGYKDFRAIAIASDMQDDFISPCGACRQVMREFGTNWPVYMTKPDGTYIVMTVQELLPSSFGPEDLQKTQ

[2] = test system: carbohydrate antigen 19-9 (CA19-9); experiment: Serum CA19-9 tumor biomarker ELISA in BxPC3 xenograft model; assay type: in vivo, mouse; conditions: day 20 of first dosing cycle
Method: (§1) Biomarkers carbohydrate antigen 19-9 (CA19-9) and carcinoembryonic antigen (CEA) associated with pancreatic cancer were tested to measure therapeutic response. Animals were treated as described in part A. Serum was collected from satellite animals (n≤3) from each group on day 0, 6, 13 and 20 of the first dosing cycle. Human CA19-9 was measured using a CA 19-9 ELISA kit (Catalog No. CA199T, Calbiotech, Spring Valley, Calif.) and CEA tumor antigen was measured using a CEA ELISA kit (Catalog No. CE062T, Calbiotech, Spring Valley, Calif.).

pancreatic cancer = conditions: cited from earlier work
[3] = test system: BxPC3 pancreatic cancer cell line; experiment: Tumor growth inhibition in BxPC3 xenograft model, PEGPH20, nab-paclitaxel and/or gemcitabine; assay type: in vivo, mouse
Method: The human pancreatic cancer xenograft model described in Example 1 was used to evaluate the antitumor effects of PEGPH20 and nab-paclitaxel combination therapy in further combination with gemcitabine treatment. Prior to performing the study, a route and dose level for gemcitabine was selected based. […] The results are depicted in FIG. 2. […] Gemcitabine was administered intraperitoneally 24 hours after PEGPH20 and/or nab-paclitaxel every 7 days for three weeks of the dose cycle. […] The results are depicted in FIG. 3. […] Table 6 depicts the results as the percentage growth inhibition relative to vehicle as determined from tumor volume measurements at day 26.

[4] = test system: BxPC3 pancreatic cancer cell line; experiment: Median survival time to endpoint in BxPC3 xenograft model; assay type: in vivo, mouse; conditions: three four-week dosing cycles; PEGPH20 4.5 mg/mL, nab-paclitaxel 10 mg/kg, gemcitabine 180 mg/kg; endpoint tumor >2000 mm^3, >20% bodyweight loss, duress or death
Method: Following the first four week dosing cycle as set forth in part A, the dosing cycle was repeated two times and time to survival endpoint was followed over time. Briefly, in each dosing cycle, animals were treated with vehicle or PEGPH20 (4.5 mg/mL) with or without nab-paclitaxel (10 mg/kg) intravenously twice a week for four weeks. In each cycle, groups receiving gemcitabine were administered gemcitabine (180 mg/kg) 24 hours after PEGPH20 and/or nab-paclitaxel every 7 days for three weeks of the dose cycle. Time to survival endpoint, a surrogate of animal survival, was defined as (a) time to tumor volume of greater than 2000 mm^3, (b) time to a greater than 20% bodyweight loss, or (c) time to animal duress or death.

[5] = rapid deamination by deoxycytidine deaminase to dFdU; cited from earlier work
[6] = test system: carcinoembryonic antigen (CEA); experiment: Serum CEA tumor biomarker ELISA in BxPC3 xenograft model; assay type: in vivo, mouse; conditions: day 20 of first dosing cycle
Method: as §1

C[C@]12C=CC(=O)C=C1CC[C@@H]1[C@@H]2[C@@H](O)C[C@@]2(C)[C@H]1CC[C@]2(O)C(=O)CO [Prednisolone]
Equivalent Potency [1]: 5 mg

C[C@H]1C[C@@H]2[C@H]([C@@H](O)C[C@@]3(C)[C@H]2CC[C@]3(O)C(=O)COC(=O)CCC(=O)O)[C@@]2(C)C=CC(=O)C=C12 [Methylprednisolone sodium succinate]
Equivalent Potency [1]: 4 mg

Cc1cc(=O)oc2cc(O)ccc12 [4-MU, 7-hydroxy-4-methylcoumarin]
reduction of metastases (B16 melanoma model): 64%

C[C@]12CCC(=O)C=C1CC[C@@H]1[C@@H]2[C@@H](O)C[C@@]2(C)[C@H]1CC[C@]2(O)C(=O)CO [Hydrocortisone]
Equivalent Potency [1]: 20 mg

Nc1ncn([C@H]2C[C@H](O)[C@@H](CO)O2)c(=O)n1 [decitabine, 5-aza-2′-deoxycytidine]
Km (cytidine deaminase): 250 µM

Nc1ccn([C@@H]2O[C@H](CO)[C@@H](O)C2(F)F)c(=O)n1 [gemcitabine, 2′-deoxy-2′,2′-difluorocytidine]
level of CA19-9 marker in serum [2]: approximately similar to vehicle only control
survival compared to patients who had surgery alone (pancreatic cancer; adjuvant setting): increased survival by two months
median survival (pancreatic cancer; gemcitabine monotherapy): over 5 months
Tumor Growth Inhibition (% of vehicle control) ([3]; day 26, PEGPH20 4.5 mg/kg i.v. 2x/wk, nab-paclitaxel 10 mg/kg i.v. 2x/wk, gemcitabine 180 mg/kg i.p. weekly): 25%
antitumor activity (in words) ([3]; four week dose cycle, FIG. 3): some antitumor activity
tumor growth compared to vehicle only (in words) ([3]; gemcitabine 60, 120, 180 and 240 mg/kg once a week (day 0, 7, 14, 21)): inhibited tumor growth at all doses tested
Median Survival Time [4]: 38 days
half-life in plasma [5]: approximately 10 minutes
level of CEA marker in serum [6]: approximately 15 ng/mL

Nc1ccn([C@H]2C[C@H](O)[C@@H](CO)O2)c(=O)n1 [deoxycytidine]
rate of deamination relative to decitabine (cytidine deaminase; at equal concentrations): about 6 fold
Km (cytidine deaminase): 12 µM
